Data from patent US20080234236A1, “REDUCTION OF ADVERSE EVENTS AFTER PERCUTANEOUS INTERVENTION BY USE OF A THROMBIN RECEPTOR ANTAGONIST” (priority 2007, published 2008).
pIC50: −log10 of the molar value. “And” between values parts separate entries of the source, which are not always exact repeats. Identical values can stand only once.

Experiments:
platelets [1] = experiment: Ex-vivo platelet aggregation in whole blood; parameters: species or system cynomolgus monkeys; details: oral dose of 0.1 mg/kg
platelets [2] = experiment: ADP-induced platelet aggregation; format: in vivo, humans; details: loading and maintenance doses
Protocol: A pharmacodynamic substudy incorporating light aggregometry was performed under stringent physiologic conditions and read by a central core laboratory. […] The term “therpeutically effective amount of a thrombin receptor antagonist” will be understood to mean that quantity of the thrombin receptor antagonist sufficient to achieve at least 80% inhibition of TRAP mediated platelet aggregation.
Similarly, there is no effect on arachidonic acid (“AA”) -induced platelet aggregation (see FIGS. 16 and 17) or collagen-induced platelet aggregation (see FIGS. 18-21).

[3] = Phase 2 study (P03573): death, MACE and other clinical events in primary (PCI) cohort; format: in vivo, humans; details: for Death/MACE, patients (%) / Death/MACE/Stroke, patients (%) / Death/MI, patients (%) / MACE, patients (%) / MI, patients (%) / Recurrent ischemia, patients (%) / Revascularization, patients (%) / Death, patients (%) / Stroke, patients (%): primary cohort (PCI); for Death/MACE, patients (%) / Death/MACE/Stroke, patients (%) / Death/MI, patients (%) / MACE, patients (%) / MI, patients (%) / Recurrent ischemia, patients (%) / Revascularization, patients (%): 60 days
Source text: (§1) The behavior of SCH 530348 in humans was further studied in a Phase 2 clinical development program. A key safety issue for SCH 530348 is the potential for incremental bleeding when added to standard of care with other oral antiplatelet therapies as well as parenteral antithrombotics. Therefore, a single Phase 2 study (P03573) was completed to evaluate the safety of SCH 530348 in patients at high risk of bleeding events, i.e., those patients undergoing non-emergent PCI (percutaneous coronary intervention). The goals of this Phase 2 study were to: • Evaluate the safety of SCH 530348 in addition to standard of care with respect to TIMI major and minor bleeding; and, • Observe the effects of SCH 530348 on major adverse cardiac events (“MACE”) in patients successfully completing an interventional procedure.
(§2) The primary endpoint (directed to evaluating safety) was the combined […] (“TIMI”) major and TIMI minor bleeding over sixty days in the primary evaluable cohort. Though the study was not powered to evaluate efficacy, a secondary endpoint (directed to evaluating efficacy) was the incidence of the composite of death and major adverse cardiac events (“MACE”) in the primary cohort. MACE includes myocardial infarction, urgent revascularization, and ischemia requiring hospitalization. Pharmacokinetics and pharmacodynamics were assessed at selected sites across the treatment groups. Other secondary endpoints included the incidence of TIMI major and minor bleeding in the secondary evaluable cohort i.e., those individuals who received the loading dose only.
Although the Phase 2 study was neither designed nor powered to assess efficacy, i.e., reduction of clinical event rates, there was a 31% relative reduction observed in the composite of death and major adverse cardiac events (MACE) at sixty days in the SCH 530348 group (5.9%) versus placebo (8.6%) in the primary cohort. This difference was not statistically significant. All clinical events were adjudicated by a blinded Clinical Events Committee.

[4] = Phase 2 study (P03573): bleeding in primary (PCI) cohort; format: in vivo, humans; details: for non-TIMI bleeding: Arterial Access, patients (%) / non-TIMI bleeding: Contusion/Bruise, patients (%) / non-TIMI bleeding: Expistaxis, patients (%) / non-TIMI bleeding: GI, patients (%) / non-TIMI bleeding: Genitourinary, patients (%) / non-TIMI bleeding: Gingival, patients (%) / non-TIMI bleeding: Incidental Cuts, patients (%) / non-TIMI bleeding: Vascular Puncture, patients (%): primary PCI cohort; for Any bleed, patients (%) / TIMI Major bleeding, patients (%) / TIMI Major/Minor bleeding, patients (%) / non-TIMI bleeding (overall), patients (%) / TIMI Minor bleeding, patients (%): primary cohort (PCI), 60 days
Source text: as §1, §2

human platelets = experiment: TRAP stimulated human platelet aggregation; format: cell-based
Source text: Schering-Plough Corp. is developing SCH 530348, which is a selective inhibitor of the primary thrombin receptor, PAR-1 (protease-activated receptor-1), on human platelets. […] Current clinical development of SCH 530348 is directed toward approval of a therapy that is adjunctive to current standard of care, e.g., the ADP antagonist clopidogrel and aspirin. However, an avoidance of bleeding risk by administration of an appropriate thrombin receptor antagonist as a monotherapy may have potential advantages over some of the currently approved antiplatelet drugs such as Plavix® (clopidogrel) and Ticlid® (ticolpidine) in certain situations such as PCI. Furthermore, the standard of care may evolve to encompass other ADP antagonists such as prasugrel. The treatment of PCI patients by administration of a thrombin receptor antagonist as adjunctive therapy to the standard of care encompasses future standards of care such as prasugrel, or any other ADP antagonist, and aspirin.

[5] = primary cohort, 40 mg loading dose

CCOC(=O)N[C@@H]1CC[C@@H]2[C@@H](C1)C[C@H]1C(=O)O[C@H](C)[C@H]1[C@H]2/C=C/c1ccc(-c2cccc(F)c2)cn1.O=S(=O)(O)O [SCH 530348, ethyl [(1R,3aR,4aR,6R,8aR,9S,9aS)-9-[(E)-2-[5-(3-fluorophenyl)-2-pyridinyl]ethenyl]-dodecahydro-1-methyl-3-oxonaphtho[2,3-c]furan-6-yl] carbamate bisulfate]
Inhibition of TRAP-driven platelet aggregation (ex-vivo) (platelets [1]): 100% | Effect on ADP-induced platelet aggregation (platelets [2]): no effect | Death/MACE, patients (%) ([3]; 10 mg loading dose): 8.5% | Death/MACE/Stroke, patients (%) ([3]; 10 mg loading dose): 9.3% | Death/MI, patients (%) ([3]; 10 mg loading dose): 5.4% | MACE, patients (%) ([3]; 10 mg loading dose): 8.5% | MI, patients (%) ([3]; 10 mg loading dose): 5.4% | Recurrent ischemia, patients (%) ([3]; 10 mg loading dose): 0.8% | Revascularization, patients (%) ([3]; 10 mg loading dose): 2.3% | Death/MACE, patients (%) ([3]; 20 mg loading dose): 5% | Death/MACE/Stroke, patients (%) ([3]; 20 mg loading dose): 5.0% | Death/MI, patients (%) ([3]; 20 mg loading dose): 4.2% | MACE, patients (%) ([3]; 20 mg loading dose): 5.0% | MI, patients (%) ([3]; 20 mg loading dose): 4.2% | Revascularization, patients (%) ([3]; 20 mg loading dose): 0.8% | Death/MACE, patients (%) ([3]; 40 mg loading dose): 4.6% | Death/MACE/Stroke, patients (%) ([3]; 40 mg loading dose): 4.6% | Death/MI, patients (%) ([3]; 40 mg loading dose): 4.0% | MACE, patients (%) ([3]; 40 mg loading dose): 4.0% | MI, patients (%) ([3]; 40 mg loading dose): 3.5% | Revascularization, patients (%) ([3]; 40 mg loading dose): 1.2% | Death/MACE, patients (%) ([3]; All SCH 530348): 5.9% | Death/MACE/Stroke, patients (%) ([3]; All SCH 530348): 6.2% | Death/MI, patients (%) ([3]; All SCH 530348): 4.5% | MACE, patients (%) ([3]; All SCH 530348): 5.7% | MI, patients (%) ([3]; All SCH 530348): 4.3% | Recurrent ischemia, patients (%) ([3]; All SCH 530348): 0.2% | Revascularization, patients (%) ([3]; All SCH 530348): 1.4% | Death, patients (%) ([3]; 10 mg loading dose): 0.8% | Stroke, patients (%) ([3]; 10 mg loading dose): 0.8% | Death, patients (%) ([3]; 40 mg loading dose): 0.6% | Death, patients (%) ([3]; All SCH 530348): 0.5% | Stroke, patients (%) ([3]; All SCH 530348): 0.2% | Reduction in MI versus placebo [3, 5]: 52% | Relative reduction in composite of death and MACE versus placebo [3, 5]: 47% | Relative reduction in composite of death and MACE at sixty days versus placebo ([3]; primary cohort, SCH 530348 group (all doses), not statistically significant): 31% | non-TIMI bleeding: Arterial Access, patients (%) ([4]; 10 mg loading dose): 11% | non-TIMI bleeding: Contusion/Bruise, patients (%) ([4]; 10 mg loading dose): 10% | non-TIMI bleeding: Expistaxis, patients (%) ([4]; 10 mg loading dose): 6% | non-TIMI bleeding: GI, patients (%) ([4]; 10 mg loading dose): 2 (2%) | non-TIMI bleeding: Genitourinary, patients (%) ([4]; 10 mg loading dose): 3% | non-TIMI bleeding: Gingival, patients (%) ([4]; 10 mg loading dose): 2 (2%) | non-TIMI bleeding: Incidental Cuts, patients (%) ([4]; 10 mg loading dose): 4% | non-TIMI bleeding: Vascular Puncture, patients (%) ([4]; 10 mg loading dose): 12% | non-TIMI bleeding: Arterial Access, patients (%) ([4]; 20 mg loading dose): 17% | non-TIMI bleeding: Contusion/Bruise, patients (%) ([4]; 20 mg loading dose): 17% | non-TIMI bleeding: Expistaxis, patients (%) ([4]; 20 mg loading dose): 5% | non-TIMI bleeding: GI, patients (%) ([4]; 20 mg loading dose): 1 (1%) | non-TIMI bleeding: Genitourinary, patients (%) ([4]; 20 mg loading dose): 5% | non-TIMI bleeding: Gingival, patients (%) ([4]; 20 mg loading dose): 1 (1%) | non-TIMI bleeding: Incidental Cuts, patients (%) ([4]; 20 mg loading dose): 13% | non-TIMI bleeding: Vascular Puncture, patients (%) ([4]; 20 mg loading dose): 18% | non-TIMI bleeding: Arterial Access, patients (%) ([4]; 40 mg loading dose): 14% | non-TIMI bleeding: Contusion/Bruise, patients (%) ([4]; 40 mg loading dose): 18% | non-TIMI bleeding: Expistaxis, patients (%) ([4]; 40 mg loading dose): 5% | non-TIMI bleeding: GI, patients (%) ([4]; 40 mg loading dose): 3% | non-TIMI bleeding: Genitourinary, patients (%) ([4]; 40 mg loading dose): 2% | non-TIMI bleeding: Gingival, patients (%) ([4]; 40 mg loading dose): 1% | non-TIMI bleeding: Incidental Cuts, patients (%) ([4]; 40 mg loading dose): 10% | non-TIMI bleeding: Vascular Puncture, patients (%) ([4]; 40 mg loading dose): 15% | non-TIMI bleeding: Arterial Access, patients (%) ([4]; All SCH 530348): 14% | non-TIMI bleeding: Contusion/Bruise, patients (%) ([4]; All SCH 530348): 15% | non-TIMI bleeding: Expistaxis, patients (%) ([4]; All SCH 530348): 5% | non-TIMI bleeding: GI, patients (%) ([4]; All SCH 530348): 2% | non-TIMI bleeding: Genitourinary, patients (%) ([4]; All SCH 530348): 3% | non-TIMI bleeding: Gingival, patients (%) ([4]; All SCH 530348): 1% | non-TIMI bleeding: Incidental Cuts, patients (%) ([4]; All SCH 530348): 9% | non-TIMI bleeding: Vascular Puncture, patients (%) ([4]; All SCH 530348): 15% | Any bleed, patients (%) ([4]; 10 mg loading dose): 37% | TIMI Major bleeding, patients (%) ([4]; 10 mg loading dose): 1.6% | TIMI Major/Minor bleeding, patients (%) ([4]; 10 mg loading dose): 1.6% | non-TIMI bleeding (overall), patients (%) ([4]; 10 mg loading dose): 36% | Any bleed, patients (%) ([4]; 20 mg loading dose): 43% | TIMI Major/Minor bleeding, patients (%) ([4]; 20 mg loading dose): 2.5% | TIMI Minor bleeding, patients (%) ([4]; 20 mg loading dose): 2.5% | non-TIMI bleeding (overall), patients (%) ([4]; 20 mg loading dose): 43% | Any bleed, patients (%) ([4]; 40 mg loading dose): 45% | TIMI Major bleeding, patients (%) ([4]; 40 mg loading dose): 0.6% | TIMI Major/Minor bleeding, patients (%) ([4]; 40 mg loading dose): 4.0% | TIMI Minor bleeding, patients (%) ([4]; 40 mg loading dose): 3.4% | non-TIMI bleeding (overall), patients (%) ([4]; 40 mg loading dose): 42% and 43% | Any bleed, patients (%) ([4]; All SCH 530348): 42% | TIMI Major bleeding, patients (%) ([4]; All SCH 530348): 0.7% | TIMI Minor bleeding, patients (%) ([4]; All SCH 530348): 2.1% | non-TIMI bleeding (overall), patients (%) ([4]; All SCH 530348): 41% and 40% | TIMI Major/Minor bleeding, patients (%) ([4]; All SCH 530348, primary safety endpoint): 2.8% | pIC50 (human platelets): 7.82
